Results reported in publication PMC7962642, “A Synergic Potential of Antimicrobial Peptides against Pseudomonas syringae pv. actinidiae” (Molecules, 2021).
Where two headings read alike, the source gives them in different places. No end group written: not given here.

Experiments:
tobacco leaf = settings: cited from earlier work
Text: The assays on tobacco plants are often used to analyze the toxicity effects of AMPs [[29],[30],[49],[5 ...

Psa strains [1] = assay: Minimal inhibitory concentration (MIC), microplate growth in MHB; type: cell-based, Pseudomonas syringae pv. actinidiae
Procedure: (§1) All strains were obtained from stocks preserved at –80 °C and cultured in King’s B medium (protease peptone, 20.0 g; anhydrous K2HPO4, 1.5 g; glycerol, 10.0 mL; MgSO4·7H2O, 1.5 g; agar, […]; distilled water up to 1.0 L). Individual colonies of each strain were selected and re-streaked two times to ensure purity. Psa strains were isolated in different infected kiwifruit orchards between 2013 and 2017. CFBP7286 was used as Psa biovar 3 reference strain. For the antibiogram assays, pure colonies of all bacterial strains were grown overnight in Muller-Hinton Broth (MHB; Oxoid), at 28 °C and 240 rpm. Bacterial growth was monitored and adjusted to 0.135 optical density at 600 nm (OD600) in a spectrophotometer (Genesys 10uv Scanning, Thermo Scientific). […] For flow cytometry experiments, bacteria were cultured in King’s B broth medium for 20 h, at 25 °C in a shaking incubator at 200 rpm.
(§2) The MIC and MBC were determined for peptides discriminated by the antibiograms as the most efficient, i.e., RW-BP100, CA-M, 3.1, and BP100. […] In this assay, additional concentrations to those used in the antibiogram analysis were included in order to obtain more accurate results. Sterile 96-well microplates were filled with 150 µL of peptide and bacterial solution in a 1:1 ratio, leading to final concentrations of peptides equal to 0.25, 0.75, 1.6, 3.4, 6.2, 10, 25, 50, and 100 µM. As negative control a bacterial-free solution and sterile distilled water was used, and positive control with chlortetracycline to a final concentration of 25 µM was used. Microplates were incubated at 25 °C and 130 rpm and OD600 was measured hourly for 24 h, with 30 s vigorous shaking before each reading. The experiment was repeated three distinct times with different fresh bacterial colonies.
(§3) Data from bacterial growth curves were analyzed to determine IC50 values with two-way ANOVA and Tukey tests (p < 0.05). MIC values were set as the peptide lowest concentrations that reduced bacterial growth.

Psa CFBP7286 = type: cell-based; settings: 1 h treatment; alone or combined with 3.1 at equal concentrations
Procedure: The number of viable bacteria cells of CFBP7286 strains was determined by CFU counting, using bacteria inocula exposed to the same AMPs (doses and periods of exposure) than those used on the flow cytometry assays. In the individual evaluation of BP100, CA-M, and 3.1 AMPs as well as the mixtures BP100:3.1 and CA-M:3.1, CFUs were determined by the drop method in the plate. All treated samples and controls were subjected to 10 serial ^1/10 dilutions in sterile PBS and 10 μL of each dilution was cultured on King’s B agar (1.5%) plates, with further incubation at 25 °C for 24 h. After the incubation time, plates were recorded in a GelDoc (BioRad) and colonies were counted for the last dilution with bacterial growth. This experiment was performed in three biological and temporal replicates.

Psa strains [2] = assay: IC50 from bacterial growth curves; type: cell-based, Pseudomonas syringae pv. actinidiae; settings: based on bacterial growth curves, read-out: half-maximal inhibitory concentration (IC50)
Procedure: as §2, §3

[3] = system: Nicotiana tabacum cv. 'Havana' leaves; assay: AMP toxicity on tobacco leaves by syringe infiltration; type: in vivo; settings: AMP alone in PBS at assay concentration
Procedure: To assess the HR, the Psa reference CFBP7286 strain was used. CFBP7286 cells were more exposed to the AMPs (doses and periods of exposure) than those used on the flow cytometry and the CFUs analyzes; from individual effects of AMPs on the reference CFBP7286 strain, the HR was assessed. Tobacco plants (Nicotiana tabacum cv. ‘Havana’) were sown in plant pots of 1 L in peat substrate (Siro, Mira, Portugal). Plants were grown for 8 weeks in a growth chamber with a controlled temperature at 25 °C ± 2 and relative humidity at 50% ± 5. Psa infiltration on tobacco plants for HR was performed according to Stefani and Loreti using a syringe tip to inoculate 1 mL of bacterial suspension after 1 h of AMPs treatments in the abaxial side of the leaves. PBS was used as a negative control and Psa CFBP7286 at the same concentration and diluted in PBS for 1 h as the treatment was infiltrated as a positive control for HR. The AMPs at the assay concentration were prepared in PBS and infiltrated, also as a negative control of the treatment. The development of HR was monitored within 24 and 48 h post infiltration (hpi). Three tobacco plants, and three leaves of each plant, were used in three independent experiments.

Psa strains [4] = assay: Minimal bactericidal concentration (MBC), subculture on peptide-free King's B agar; type: cell-based, Pseudomonas syringae pv. actinidiae
Procedure: as §1, §2, §3

[5] = system: Pseudomonas syringae pv. actinidiae (Psa) strains; assay: Antibiogram assay (peptide drop on inoculated MH agar); type: cell-based; parameters: key: “ns” means the strain was not susceptible to the peptide in the tested concentration range; settings: 1 µL drop on MH agar, 25 °C, 24 h, tested 0.4-200 µM
Procedure: All strains were obtained from stocks preserved at –80 °C and cultured in King’s B medium (protease peptone, 20.0 g; anhydrous K2HPO4, 1.5 g; glycerol, 10.0 mL; MgSO4·7H2O, 1.5 g; agar, […]; distilled water up to 1.0 L). Individual colonies of each strain were selected and re-streaked two times to ensure purity. Psa strains were isolated in different infected kiwifruit orchards between 2013 and 2017. CFBP7286 was used as Psa biovar 3 reference strain. For the antibiogram assays, pure colonies of all bacterial strains were grown overnight in Muller-Hinton Broth (MHB; Oxoid), at 28 °C and 240 rpm. Bacterial growth was monitored and adjusted to 0.135 optical density at 600 nm (OD600) in a spectrophotometer (Genesys 10uv Scanning, Thermo Scientific). […]
All six AMPs, BP100, RW-BP100, CA-M, D4E1, 3.1, and Dhvar-5 (Table 3), were evaluated by antibiogram assays to determine the most promising peptides against the selected bacterial strains. […]
For the pre-incubation, bacterial cultures were inoculated in Muller-Hinton (MH; Oxoid) agar (1.5%) medium by spreading 1 mL of each culture, removing the excess after 1 min and allowing drying for 15 min. […] After the incubation period, plate images were acquired on Gel Doc (BioRad, Hercules, CA, USA) and AMP activity was determined by no growth on drop site for each concentration. […]

[6] = reference strain CFBP7286, MHB, 96-well, 25 °C, 130 rpm, OD600 hourly for 24 h, repeated three times
[7] = strain AL114b, MHB, 96-well, 25 °C, 130 rpm, OD600 hourly for 24 h, repeated three times
[8] = strain AL115, MHB, 96-well, 25 °C, 130 rpm, OD600 hourly for 24 h, repeated three times
[9] = strain Fv62, MHB, 96-well, 25 °C, 130 rpm, OD600 hourly for 24 h, repeated three times
[10] = strain P85, MHB, 96-well, 25 °C, 130 rpm, OD600 hourly for 24 h, repeated three times
[11] = strain VN29, MHB, 96-well, 25 °C, 130 rpm, OD600 hourly for 24 h, repeated three times
[12] = strain VV10, MHB, 96-well, 25 °C, 130 rpm, OD600 hourly for 24 h, repeated three times
[13] = strain VV112, MHB, 96-well, 25 °C, 130 rpm, OD600 hourly for 24 h, repeated three times
[14] = all strains (for CA-M except P85 and VN29), repeated three times
[15] = reference strain CFBP7286, subculture on peptide-free King's B agar, 25 °C, 24 h
[16] = strain AL114b, subculture on peptide-free King's B agar, 25 °C, 24 h
[17] = strain AL115, subculture on peptide-free King's B agar, 25 °C, 24 h
[18] = strain Fv62, subculture on peptide-free King's B agar, 25 °C, 24 h
[19] = strain P85, subculture on peptide-free King's B agar, 25 °C, 24 h
[20] = strain VN29, subculture on peptide-free King's B agar, 25 °C, 24 h
[21] = strain VV10, subculture on peptide-free King's B agar, 25 °C, 24 h
[22] = strain VV112, subculture on peptide-free King's B agar, 25 °C, 24 h
[23] = summary over the eight Psa strains (abstract)

CC[C@H](C)[C@H](NC(=O)[C@H](CCCCN)NC(=O)[C@H](CCCCN)NC(=O)[C@H](Cc1ccccc1)NC(=O)[C@H](CC(C)C)NC(=O)[C@H](CCCCN)NC(=O)[C@@H](N)CCCCN)C(=O)N[C@@H](CC(C)C)C(=O)N[C@@H](CCCCN)C(=O)N[C@@H](Cc1ccc(O)cc1)C(=O)N[C@@H](CC(C)C)C(N)=O [BP100, reference compound]
3.4 µM: MIC (Psa strains [1]; [6]) | MIC (Psa strains [1]; [7]) | MIC (Psa strains [1]; [8]) | MIC (Psa strains [1]; [9]) | MIC (Psa strains [1]; [10]) | MIC (Psa strains [1]; [11]) | MIC (Psa strains [1]; [12]) | MIC (Psa strains [1]; [13]) | MBC (Psa strains [4]; [15]) | MBC (Psa strains [4]; [16]) | MBC (Psa strains [4]; [17])
~2 µM: IC50 (Psa strains [2]; [14])
12.5 mm: tobacco leaf lesions (tobacco leaf; at 250 µM)
2 µM: lethal concentration of BP100 by CFUs (Psa CFBP7286)
10 µM: MBC (Psa strains [4]; [18]) | MBC (Psa strains [4]; [22])
4 mm: tobacco leaf lesions (tobacco leaf; at 50 µM)
6.2 µM: MBC (Psa strains [4]; [19]) | MBC (Psa strains [4]; [20]) | MBC (Psa strains [4]; [21])
absence/low toxicity: AMP toxicity on tobacco plants [3]
3.4 to 10 µM: MBC (Psa strains [4]; [23])

KKLLKWLLKLL-NH2 [3.1]
10 µM: MIC (Psa strains [1]; [6]) | MIC (Psa strains [1]; [8]) | MIC (Psa strains [1]; [9]) | MIC (Psa strains [1]; [11]) | MIC (Psa strains [1]; [12]) | MIC (Psa strains [1]; [13]) | MBC (Psa strains [4]; [17])
25 µM: MIC (Psa strains [1]; [7]) | MIC (Psa strains [1]; [10]) | MBC (Psa strains [4]; [15]) | MBC (Psa strains [4]; [16]) | MBC (Psa strains [4]; [18]) | MBC (Psa strains [4]; [19]) | MBC (Psa strains [4]; [20]) | MBC (Psa strains [4]; [21]) | MBC (Psa strains [4]; [22])
absence/low toxicity: AMP toxicity on tobacco plants [3]

KWKLFKKIGAVLKVL-NH2 [CA-M]
10 µM: MBC (Psa strains [4]; [16]) | MBC (Psa strains [4]; [18])
6.2 µM: MIC (Psa strains [1]; [10]) | MIC (Psa strains [1]; [11]) | MBC (Psa strains [4]; [15]) | MBC (Psa strains [4]; [17]) | MBC (Psa strains [4]; [19]) | MBC (Psa strains [4]; [20]) | MBC (Psa strains [4]; [21]) | MBC (Psa strains [4]; [22])
3.4 µM: MIC (Psa strains [1]; [6]) | MIC (Psa strains [1]; [7]) | MIC (Psa strains [1]; [8]) | MIC (Psa strains [1]; [9]) | MIC (Psa strains [1]; [12]) | MIC (Psa strains [1]; [13])
absence/low toxicity: AMP toxicity on tobacco plants [3]
3.4 to 10 µM: MBC (Psa strains [4]; [23])
~4 µM: IC50 (Psa strains [2]; strain P85) | IC50 (Psa strains [2]; strain VN29)
~2 µM: IC50 (Psa strains [2]; [14])
3.4 to 6.2 µM: MIC (Psa strains [1]; [23])

LLLFLLKKRKKRKY-NH2 [Dhvar-5]
ns: antibiogram inhibitory concentration ([5]; strain VC104b) | antibiogram inhibitory concentration ([5]; strain VN29)

RRLFRRILRWL-NH2 [RW-BP100]
6.2 µM: MIC (Psa strains [1]; [7]) | MIC (Psa strains [1]; [8]) | MIC (Psa strains [1]; [9]) | MIC (Psa strains [1]; [10]) | MIC (Psa strains [1]; [11]) | MIC (Psa strains [1]; [12]) | MIC (Psa strains [1]; [13]) | MBC (Psa strains [4]; [15]) | MBC (Psa strains [4]; [16]) | MBC (Psa strains [4]; [17]) | MBC (Psa strains [4]; [18]) | MBC (Psa strains [4]; [19]) | MBC (Psa strains [4]; [20]) | MBC (Psa strains [4]; [21]) | MBC (Psa strains [4]; [22])
3.4 µM: MIC (Psa strains [1]; [6])
